# Reference: patent US11661439B2, “Peptide hydrogels and use thereof” (The United States of America, as represented by the …, priority 2017, dated 2023)
# How the values were obtained:
# [1] = Oscillatory rheology of protein-loaded AcVES3 hydrogels; type: physicochemical; conditions: at 60 min; 0.5 wt % AcVES3 hydrogel loaded with protein
# Method: FIGS. 12A and 12B. […] (12A) Dynamic time sweep experiments. Hydrogels were set for 60 min, followed by 30 s of high strain, then a recovery period of 60 min. (12B) Storage moduli after 60 min. Bars outlined in black represent post shear storage moduli after 60 min recovery.
# Oscillatory Rheology. Rheological assessment was conducted on a […] AR-G2 rheometer using a 25 mm stainless steel parallel geometry. A representative set of proteins was used to determine whether the fusion domain affected the material properties of the AcVES3 hydrogels. […] This solution was immediately applied to the center of the plate and the upper geometry was lowered to a gap height of […]. The temperature was increased from 5° C. to 37° C. over 100 s at a constant angular frequency of 6 rad s^−1 and 0.2% strain. The storage and loss moduli were monitored for 60 min at a constant angular frequency of 6 rad s^−1 and 0.2% strain at 37° C. […] The moduli were monitored for 60 min (6 rad s^−1, 0.2% strain, 37° C.), followed by the application of 1000% strain for 30 s to shear the gel, after which the strain was reduced to 0.2% and the gel was allowed to recover for 60 min (6 rad s^−1, 0.2% strain).
# [2] = TEM analysis of peptide fibrils; type: physicochemical; conditions: 30 independent measurements
# Method: FIG. 4. Fibril visualization of β-hairpin peptide hydrogels. Transmission Electron Microscopy (TEM) images of peptide fibrils and frequency distributions determined from 30 independent measurements (scale bar=100 nm).
# Transmission electron microscopy (TEM) analysis. The hydrogel nanostructure of the peptide gels was observed using a Hitachi H-7650 transmission electron microscope at a voltage of 80 kV. A 1 wt % solution of peptide and an equal volume of buffer (50 mM HEPES containing 300 mM NaCl, pH 7.4) was mixed and incubated overnight at 37° C. to allow for gelation. The next day, samples for TEM analysis were prepared by suspending 5 μL of the resulting peptide gel in 195 μL of water to yield a 40-fold dilution. Small amounts (5 μL) of each diluted gel solution were applied to separate carbon coated copper grids. After 1 min, the grid was washed with water. Then, a 1 w/v % uranyl acetate aqueous solution was placed on each grid for negative staining. Excess staining solution was blotted away, left to air dry, and the grids were imaged immediately.
# [3] = test system: human dermal fibroblasts (HDFs); experiment: 2D cell culture of HDFs on gel surfaces; type: cell-based; conditions: Essential 8 Medium or serum-free DMEM
# Method: 2D cell culture on peptide gels. Peptides were initially dissolved in water at 1 wt % on ice and mixed with an equal volume of ice-cold 2×HEPES buffer (50 mM HEPES, 300 mM NaCl, pH 7.4). The peptide solution (50 μL per well) was transferred to a non-tissue culture treated 96-well plates and incubated at 37° C. to initiate gelation. After 1 hour, HDFs (2×10^4 cells per 200 μL, per well) in serum-free DMEM, 10% FBS supplemented DMEM, or Essential 8 Medium (Thermo Fisher Scientific) were seeded on the peptide gels and cultured for 4 days. Bovine type I collagen gels (0.3 wt %, 50 μL per well) were prepared in 96-well plates following manufacturer's instructions.
# Cell viability assay. Cell viability was evaluated by live and dead cell staining after 2D and 3D cell culture. Serum-free DMEM containing 1 μM calcein-AM and 2 μM ethidium homodimer-1 was added to the cells (200 μL per well for 2D culture and 500 μL each to the top and bottom of the gels for 3D culture). After incubation at 37° C. for 30 min, live and dead cells were visualized using EVOS FL Auto Cell Imaging System (Thermo Fisher Scientific). For the pseudo-colored composite image of varying heights of encapsulated cells, images of the live-stained cells were captured every 5 μm of height. Then Z-stack images for each 100 μm were flattened using the EVOS software, and the flattened images were pseudo-colored and merged using ImageJ.
# Cell proliferation assay. A cell proliferation assay was performed using Cell Counting Kit-8 (CCK-8, Dojindo Molecular Technologies) for 2D and 3D cell culture. Serum-free DMEM containing 10% CCK-8 was added to the gels (200 μL per well for 2D culture; 500 μL to the top of the gels for 3D culture) and incubated for 2 hours at 37° C. Subsequently, media were transferred to 96-well plates (150 μL per well) and their absorbance measured at 450 nm relative to control viabilities from day 0 for 2D cell culture and day 1 for 3D cell culture. Experiments were performed in triplicate.
# Cytoskeleton staining. For 2D cell culture, the peptide and collagen gels (70 μL) were prepared as described above on the glass bottom of 35 mm dishes (7 mm glass diameter, MatTek). HDFs in Essential 8 Medium (1.5×10^5 cells per 3 mL) were added to the dishes and incubated at 37° C. for 24 hours. Cells were fixed and permeabilized with 4% paraformaldehyde and 0.1% Triton X-100 in PBS for 15 min, and then blocked with 1% BSA in PBS. Cells were incubated with anti-vinculin antibody (hVIN-1, Sigma) for 1 hour at room temperature. Then, a goat anti-mouse IgG (H+L) cross-adsorbed secondary antibody, Rhodamine Red-X (2 μg mL^−1, Thermo Fisher Scientific), Alexa Fluor 488 phalloidin (5 units mL^−1, Thermo Fisher Scientific), and Hoechst 33342 (5 μg mL^−1, Invitrogen) in PBS were added to the dishes and incubated for 1 hour at room temperature. After washing, cells were visualized using an EVOS FL Auto Cell Imaging System.
Substance,storage moduli [1] [Pa],average fibril width [2] [nm],cell adhesion of HDFs on gel surface ([3]; day 1),cell adhesion of HDFs on gel surface ([3]; day 4)
"EGFP: fluorescent protein EGFP, SEQ ID NO: 19, model heterologous protein with net negative charge",~1000,,,
Ac-VEVSVSVEV^DPPTEVSVEVEV-NH2 [AcVES3],,3.1±0.4,adhered,most of the cells detached
